Literature values in patent US8491930B2, “Pharmaceutical formulation containing ibuprofen and codeine” (Farmasierra Manufacturing, S.L., priority 2008, dated 2013).

SMILES: COc1ccc2c3c1OC1C(O)C=C[C@H]4[C@@H](C2)N(C)CC[C@]314 (stereo partly shown) [Codeine phosphate, 7,8-didehydro-4,5-epoxy-3-methoxy-17-methyl-morphinan-6-ol]
- Solubility in water: soluble in water
